Assay results taken from patent publication US20260102340A1, “Therapeutic Formulation” (1000739373 Ontario Ltd., priority 2022, published 2026).

Legend:
[1] = Visual solubility of formulations packaged in glass bottles; assay type: physicochemical; conditions: 100 μg/50 μl in 12% w/w ethanol and HFA 134a, T=5° C. and T=20° C.
[2] = Stability of CBD formulation in HFA 134a (residual); assay type: physicochemical; conditions: for Residual (% of 5° C. data): Valve Up
Procedure: The stability of a cannabidiol (CBD) formulation in HFA 134a was evaluated over a 6-month period.
The formulation consisted of 3.57% (w/w) CBD, 15% (w/w) ethanol, and HFA 134a. The formulation was packaged in Presspart™ Plasma 14 mL canisters with metering valves 1908 (Aptar™). The canisters were stored in the valve-up orientation for 6 months at 5° C., 25° C., or 40° C. The residual formulation was measured at 1 month and 6 months.

Compound | Visual solubility in glass bottles [1] | Stability of CBD-HFA formulations ([2]; 5° C., 25° C. and 40° C.) | Residual (% of 5° C. data) ([2]; Batch OZ210527/DAL/G1, 1 month (n = 3), 25° C.) | Residual (% of 5° C. data) ([2]; Batch OZ210527/DAL/G1, 1 month (n = 3), 40° C.) | Residual (% of 5° C. data) ([2]; Batch OZ210527/DAL/G1, 3.57% CBD, 15% ethanol, HFA 134a, 1 month (n = 3), 5° C.) | Residual (% of 5° C. data) ([2]; Batch OZ210527/DAL/G1, 6 month (n = 4), 25° C.) | Residual (% of 5° C. data) ([2]; Batch OZ210527/DAL/H1, 1 month (n = 3), 25° C.) | Residual (% of 5° C. data) ([2]; Batch OZ210527/DAL/H1, 1 month (n = 3), 40° C.) | Residual (% of 5° C. data) ([2]; Batch OZ210527/DAL/H1, 3.57% CBD, 15% ethanol, HFA 134a, 1 month (n = 3), 5° C.) | Residual (% of 5° C. data) ([2]; Batch OZ210527/DAL/H1, 6 month (n = 4), 25° C.)
CCCC1O[C@@H]2C[C@H]3[C@@H]4CCC5=CC(=O)C=C[C@]5(C)[C@H]4[C@@H](O)C[C@]3(C)[C@]2(C(=O)CO)O1 (stereo partly shown) [Budesonide] | confirmed visually | – | – | – | – | – | – | – | – | –
C=C(C)[C@@H]1CCC(C)=C[C@H]1c1c(O)cc(CCCCC)cc1O [CBD, cannabidiol] | – | stable | 100.3 % of 5 °C data | 98.5 % of 5 °C data | 100.00 % of 5 °C data | 93.3 % of 5 °C data | 100.2 % of 5 °C data | 98.1 % of 5 °C data | 100.0 % of 5 °C data | 93.5 % of 5 °C data
